Measurements: patent publication US12655116B2, “Substituted isophthalic acid diamides” (Bayer Aktiengesellschaft, priority 2020, dated 2026)

How the values were obtained:
[1] = test system: MATIN; experiment: Post-emergence herbicidal action against MATIN; type: in vivo, Matricaria inodora; conditions: Tripleurospermum inodorum, 504 h; for pest or weed control at 20 g/ha: dosage 20 g/ha
How it was run: (§1)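 Percent herbicidal action is rated by eye about 3 weeks after treatment against untreated controls, where 100% means dead plants and 0% means like controls. Plants in sandy loam are sprayed on green parts at the one-leaf stage with aqueous WP or EC preparations at 600 to 800 l/ha plus 0.2% wetting agent.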

[2] = test system: AMARE; experiment: Post-emergence herbicidal action against AMARE; type: in vivo, Amaranthus retroflexus; conditions: Amaranthus retroflexus, 504 h, 20 g/ha, visual assessment about 3 weeks after treatment, 100% = plants have died, 0% = like control plants
How it was run: as §1

[3] = test system: AVEFA; experiment: Pre-emergence herbicidal action against AVEFA; type: in vivo, Avena fatua; conditions: Avena fatua, 504 h, pre-emergence
How it was run: (§2)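 Seeds sown in sandy loam, soil-covered; compound sprayed on soil surface pre-emergence. Application: WP/EC, 600–800 l/ha, 0.2% wetting agent. Readout: visual % damage at 3 weeks.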

[4] = test system: ECHCG; experiment: Pre-emergence herbicidal action against ECHCG; type: in vivo, Echinochloa crus-galli; conditions: Echinochloa crus-galli, 504 h
How it was run: as §2

[5] = test system: ALOMY; experiment: Pre-emergence herbicidal action against ALOMY; type: in vivo, Alopecurus myosuroides; conditions: Alopecurus myosuroides, 504 h, pre-emergence; for pest or weed control at 80 g/ha: scored visually after 3 weeks vs untreated controls (100% = plants have died, 0% = like control plants)
How it was run: as §2

[6] = test system: MATIN; experiment: Pre-emergence herbicidal action against MATIN; type: in vivo, Matricaria inodora; conditions: Tripleurospermum inodorum, 504 h; for pest or weed control at 20 g/ha: dosage 20 g/ha; for pest or weed control at 80 g/ha: dosage 80 g/ha
How it was run: as §2

[7] = test system: ALOMY; experiment: Post-emergence herbicidal action against ALOMY; type: in vivo, Alopecurus myosuroides; conditions: Alopecurus myosuroides, 504 h, visual assessment about 3 weeks after treatment vs untreated controls; for pest or weed control at 20 g/ha: dosage 20 g/ha
How it was run: as §1

[8] = test system: VERPE; experiment: Post-emergence herbicidal action against VERPE; type: in vivo, Veronica persica; conditions: Veronica persica, 504 h, 20 g/ha
How it was run: as §1

[9] = test system: ABUTH; experiment: Post-emergence herbicidal action against ABUTH; type: in vivo, Abutilon theophrasti; conditions: Abutilon theophrasti, 504 h, visual assessment about 3 weeks after treatment vs untreated controls; for pest or weed control at 5 g/ha: dosage 5 g/ha; for pest or weed control at 20 g/ha: dosage 20 g/ha
How it was run: as §1

[10] = test system: VIOTR; experiment: Post-emergence herbicidal action against VIOTR; type: in vivo, Viola tricolor; conditions: Viola tricolor, 504 h
How it was run: as §1

[11] = test system: VIOTR; experiment: Pre-emergence herbicidal action against VIOTR; type: in vivo, Viola tricolor; conditions: Viola tricolor, 504 h; for pest or weed control at 20 g/ha: dosage 20 g/ha; for pest or weed control at 80 g/ha: dosage 80 g/ha
How it was run: as §2

[12] = test system: SETVI; experiment: Post-emergence herbicidal action against SETVI; type: in vivo, Setaria viridis; conditions: Setaria viridis, 504 h; for pest or weed control at 5 g/ha: dosage 5 g/ha; for pest or weed control at 20 g/ha: dosage 20 g/ha
How it was run: as §1

[13] = test system: DIGSA; experiment: Pre-emergence herbicidal action against DIGSA; type: in vivo, Digitaria sanguinalis; conditions: Digitaria sanguinalis, 504 h; for pest or weed control at 80 g/ha: dosage 80 g/ha
How it was run: as §2

[14] = test system: PHBPU; experiment: Post-emergence herbicidal action against PHBPU; type: in vivo, Pharbitis purpurea; conditions: Ipomoea purpurea, 504 h, dosage 20 g/ha
How it was run: as §1

[15] = test system: ABUTH; experiment: Pre-emergence herbicidal action against ABUTH; type: in vivo, Abutilon theophrasti; conditions: Abutilon theophrasti, 504 h; for pest or weed control at 80 g/ha: scored visually after 3 weeks vs untreated controls (100% = plants have died, 0% = like control plants)
How it was run: as §2

[16] = test system: POLCO; experiment: Pre-emergence herbicidal action against POLCO; type: in vivo, Polygonum convolvulus; conditions: Fallopia convolvulus, 504 h, dosage 80 g/ha
How it was run: as §2

[17] = test system: AVEFA; experiment: Post-emergence herbicidal action against AVEFA; type: in vivo, Avena fatua; conditions: Avena fatua, 504 h, 20 g/ha, visual assessment about 3 weeks after treatment, 100% = plants have died, 0% = like control plants
How it was run: as §1

[18] = test system: VERPE; experiment: Pre-emergence herbicidal action against VERPE; type: in vivo, Veronica persica; conditions: Veronica persica, 504 h, dosage 80 g/ha
How it was run: as §2

[19] = test system: AMARE; experiment: Pre-emergence herbicidal action against AMARE; type: in vivo, Amaranthus retroflexus; conditions: Amaranthus retroflexus, 504 h, scored visually after 3 weeks vs untreated controls, 100% = plants have died, 0% = like control plants
How it was run: as §2

[20] = test system: DIGSA; experiment: Post-emergence herbicidal action against DIGSA; type: in vivo, Digitaria sanguinalis; conditions: Digitaria sanguinalis, 504 h
How it was run: as §1

[21] = test system: SETVI; experiment: Pre-emergence herbicidal action against SETVI; type: in vivo, Setaria viridis; conditions: Setaria viridis, 504 h; for pest or weed control at 20 g/ha: dosage 20 g/ha; for pest or weed control at 80 g/ha: dosage 80 g/ha
How it was run: as §2

[22] = test system: ECHCG; experiment: Post-emergence herbicidal action against ECHCG; type: in vivo, Echinochloa crus-galli; conditions: Echinochloa crus-galli, 504 h; for pest or weed control at 5 g/ha: dosage 5 g/ha; for pest or weed control at 20 g/ha: dosage 20 g/ha
How it was run: as §1

[23] = test system: PHBPU; experiment: Pre-emergence herbicidal action against PHBPU; type: in vivo, Pharbitis purpurea; conditions: Ipomoea purpurea, 504 h, dosage 80 g/ha
How it was run: as §2

[24] = 20 g/ha, scored visually after 3 weeks, 100% = plants have died, 0% = like control plants

Row | Structure (SMILES) | pest or weed control at 20 g/ha [1] [%] | pest or weed control at 20 g/ha [2] [%] | pest or weed control at 80 g/ha [3] [%] | pest or weed control at 80 g/ha [4] [%] | pest or weed control at 80 g/ha [5] [%] | pest or weed control at 20 g/ha [6] [%] | pest or weed control at 80 g/ha [6] [%] | pest or weed control at 20 g/ha [7] [%] | pest or weed control at 5 g/ha [9] [%] | pest or weed control at 20 g/ha [9] [%] | pest or weed control at 5 g/ha [10] [%] | pest or weed control at 20 g/ha [10] [%] | pest or weed control at 20 g/ha [11] [%] | pest or weed control at 80 g/ha [11] [%] | pest or weed control at 5 g/ha [12] [%] | pest or weed control at 20 g/ha [12] [%] | pest or weed control at 80 g/ha [13] [%] | pest or weed control at 20 g/ha [14] [%] | pest or weed control at 80 g/ha [15] [%] | pest or weed control at 80 g/ha [16] [%] | also measured
1 | CCNC(=O)c1c(C(F)F)ccc(C(=O)Nc2nnnn2C)c1Br [Example 1-226] | 80 | 100 | 90 | 100 | 90 | 100 | 100 | 100 | 90 | 90 | 100 | 100 | 80 | 100 | 100 | 100 | 90 | 80 | 90 | 90 | pest or weed control at 20 g/ha [3, 24]: 80%; pest or weed control at 20 g/ha ([4]; 20 g/ha): 80%; pest or weed control at 5 g/ha ([7]; dosage 5 g/ha): 80%; pest or weed control at 20 g/ha [8]: 90%; pest or weed control at 20 g/ha [17]: 80%; pest or weed control at 80 g/ha [18]: 90%; pest or weed control at 20 g/ha [19]: 100%; pest or weed control at 80 g/ha [19]: 100%; pest or weed control at 5 g/ha [20]: 90%; pest or weed control at 20 g/ha [20]: 100%; pest or weed control at 20 g/ha [21]: 100%; pest or weed control at 80 g/ha [21]: 100%; pest or weed control at 5 g/ha [22]: 100%; pest or weed control at 20 g/ha [22]: 100%
2 | CCn1nnnc1NC(=O)c1ccc(C(F)(F)F)c(C(=O)NC2CC2)c1OC [Example 2-58] | 90 | 100 | 90 | 100 | 100 | 100 | 100 | 80 | 100 | 100 | 100 | 100 | 100 | 100 | 90 | 100 | 100 | 90 | 100 | 80 | pest or weed control at 5 g/ha ([1]; dosage 5 g/ha): 80%; pest or weed control at 20 g/ha [5, 24]: 90%; pest or weed control at 80 g/ha [23]: 90%; pest or weed control at 20 g/ha ([13]; dosage 20 g/ha): 100%; pest or weed control at 20 g/ha ([15]; dosage 20 g/ha, scored visually after 3 weeks vs untreated controls, 100% = plants have died, 0% = like control plants, read-out: Pre-emergence action against ABUTH (herbicidal activity in percent)): 100%; pest or weed control at 20 g/ha [17]: 80%; pest or weed control at 20 g/ha [19]: 100%; pest or weed control at 80 g/ha [19]: 100%; pest or weed control at 5 g/ha [20]: 100%; pest or weed control at 20 g/ha [20]: 100%; pest or weed control at 20 g/ha [21]: 100%; pest or weed control at 80 g/ha [21]: 100%; pest or weed control at 5 g/ha [22]: 90%; pest or weed control at 20 g/ha [22]: 100%
